From US11547681B2, “N-acylethanolamide derivatives and uses thereof” (ELIEM THERAPEUTICS, INC., priority 2016, dated 2023)

Assay: in vitro
Details: male, CD-1, mouse; for Concentration (μM) of analyte PEA, 0 min / Concentration (μM) of analyte PEA, 10 min / Concentration (μM) of analyte PEA, 20 min / Concentration (μM) of analyte PEA, 30 min / Concentration (μM) of analyte PEA, 60 min / % Remaining of Initial (n = 1), 0 min / % Remaining of Initial (n = 1), 10 min / % Remaining of Initial (n = 1), 20 min / % Remaining of Initial (n = 1), 30 min / % Remaining of Initial (n = 1), 60 min / Measured concentration of PEA (analyte) / % Remaining of Initial / Concentration, analyte PEA / % Remaining of Initial (n = 1): 1 μM
Protocol: (§1) Reaction mixture, minus cofactors, was prepared as described below. Test article was added into the reaction mixture at a final concentration of 1 μM. […] An aliquot of the reaction mixture (without cofactor cocktail) was equilibrated in a shaking water bath at 37° C. for 3 minutes. The reaction was initiated by the addition of cofactor cocktail, and the mixture was incubated in a shaking water bath at 37° C. Aliquots (100 μL) were withdrawn at 0, 10, 20, 30, and 60 minutes. Test article samples were immediately combined with 300 μL of ice-cold acetonitrile containing 1% formic acid. Control samples were immediately combined with 400 μL of ice-cold 50/50 acetonitrile (ACN)/dH2O containing 0.1% formic acid and internal standard to terminate the reaction. Samples were then mixed and centrifuged to precipitate proteins. Calibration standards were prepared in matched matrix. Samples and standards were assayed by LC-MS/MS using electrospray ionization for both the dosed prodrug and the expected drug (PEA). Analytical conditions are outlined in Appendix 8-1. Test article concentration at each time point was compared to test article concentration at time 0 to determine the percent remaining at each time point. Halflives were calculated using GraphPad software, fitting to a single-phase exponential decay equation.
as §1, with “for 5” for “for 3”, “minutes. Reaction” for “minutes. The reaction”, “and” for “and the”, “both” for “both the”, “Appendix 10-1.” for “Appendix 8-1.”
Reaction mixture, minus cofactors, was prepared as described below. Test article was added into the reaction mixture at a final concentration of 1 μM. […] An aliquot of the reaction mixture (without cofactor cocktail) was equilibrated in a shaking water bath at 37° C. for 3 minutes. Reaction was initiated by the addition of cofactor cocktail, and the mixture was incubated in a shaking water bath at 37° C. Aliquots (100 μL) were withdrawn at 0, 10, 20, 30, and 60 minutes. Test article samples were immediately combined with 300 μL of ice-cold acetonitrile containing 1% formic acid. Control samples were immediately combined with 400 μL of ice-cold 50/50 acetonitrile (ACN)/dH2O containing 0.1% formic acid and internal standard to terminate the reaction. Samples were then mixed and centrifuged to precipitate proteins. Calibration standards were prepared in matched matrix. Samples and standards were assayed by LC-MS/MS using electrospray ionization for both dosed prodrug and expected drug (PEA). Analytical conditions are outlined in Appendix 13-1. Test article concentration at each time point was compared to test article concentration at time 0 to determine the percent remaining at each time point. Halflives were calculated using GraphPad software, fitting to a single-phase exponential decay equation.

SMILES: CCCCCCCCCCCCCCCC(=O)NCCOC(=O)CCC [Compound I-2]
- Concentration (μM) of analyte PEA, 0 min (0 min): 0.52 µM
- Concentration (μM) of analyte PEA, 10 min (10 min): 0.50 µM
- Concentration (μM) of analyte PEA, 20 min (20 min): 0.52 µM
- Concentration (μM) of analyte PEA, 30 min (30 min): 0.45 µM
- Concentration (μM) of analyte PEA, 60 min (60 min): 0.45 µM
- % Remaining of Initial (n = 1), 0 min (s9, 0 h): 100%
- % Remaining of Initial (n = 1), 10 min (s9, 10 min): <1.0%
- % Remaining of Initial (n = 1), 20 min (s9, 20 min): <1.0%
- % Remaining of Initial (n = 1), 30 min (s9, 0.5 h): <1.0%
- % Remaining of Initial (n = 1), 60 min (s9, 1 h): <1.0%
- microsomal CLint at 1 μM (s9, CLint (mL/min/mg protein)): > 691 µL/min/mg
- half-life at 1 μM (s9, Half-life (min)): < 1 min

SMILES: CCCCCCCCCCCCCCCC(=O)NCCOC(=O)CCC(=O)OCC(COC(=O)CCCCCCC)OC(=O)CCCCCCC (stereo not drawn) [Compound I-3, PEA-Succinate-Glycerol-Di-Caprylic]
- Concentration (μM) of analyte PEA, 0 min (0 min): 0 µM
- Concentration (μM) of analyte PEA, 10 min (10 min): 0.026 µM
- Concentration (μM) of analyte PEA, 20 min (20 min): 0.024 µM
- Concentration (μM) of analyte PEA, 30 min (30 min): 0.026 µM
- Concentration (μM) of analyte PEA, 60 min (60 min): 0.043 µM
- % Remaining of Initial (n = 1), 0 min (s9, 0 h): 100%
- % Remaining of Initial (n = 1), 10 min (s9, 10 min): 68%
- % Remaining of Initial (n = 1), 20 min (s9, 20 min): 59%
- % Remaining of Initial (n = 1), 30 min (s9, 0.5 h): 49%
- % Remaining of Initial (n = 1), 60 min (s9, 1 h): 33%
- microsomal CLint at 1 μM (s9, CLint (mL/min/mg protein)): 21.1 µL/min/mg
- half-life at 1 μM (s9, Half-life (min)): 33 min

SMILES: CC/C=C\C/C=C\C/C=C\C/C=C\C/C=C\CCCC(=O)OCCNC(=O)CCCCCCCCCCCCCCC [Compound I-5]
- Concentration (μM) of analyte PEA, 0 min (0 min): 0.050 µM
- Concentration (μM) of analyte PEA, 10 min (10 min): 0.11 µM
- Concentration (μM) of analyte PEA, 20 min (20 min): 0.076 µM
- Concentration (μM) of analyte PEA, 30 min (30 min): 0.093 µM
- Concentration (μM) of analyte PEA, 60 min (60 min): 0.14 µM
- % Remaining of Initial (n = 1), 0 min (s9, 0 h): 100%
- % Remaining of Initial (n = 1), 10 min (s9, 10 min): 68%
- % Remaining of Initial (n = 1), 20 min (s9, 20 min): 67%
- % Remaining of Initial (n = 1), 30 min (s9, 0.5 h): 66%
- % Remaining of Initial (n = 1), 60 min (s9, 1 h): 49%

SMILES: CCCCC/C=C\C/C=C\CCCCCCCC(=O)OCCNC(=O)CCCCCCCCCCCCCCC [Compound I-6]
- Concentration (μM) of analyte PEA, 0 min (0 min): 0.12 µM
- Concentration (μM) of analyte PEA, 10 min (10 min): 0.14 µM
- Concentration (μM) of analyte PEA, 20 min (20 min): 0.17 µM
- Concentration (μM) of analyte PEA, 30 min (30 min): 0.15 µM
- Concentration (μM) of analyte PEA, 60 min (60 min): 0.17 µM
- % Remaining of Initial (n = 1), 0 min (s9, 0 h): 100%
- % Remaining of Initial (n = 1), 10 min (s9, 10 min): 62%
- % Remaining of Initial (n = 1), 20 min (s9, 20 min): 69%
- % Remaining of Initial (n = 1), 30 min (s9, 0.5 h): 61%
- % Remaining of Initial (n = 1), 60 min (s9, 1 h): 53%
- microsomal CLint at 1 μM (s9, CLint (mL/min/mg protein)): < 11.6 µL/min/mg
- microsomal CLint at 1 μM (s9, CLint (mL/min/mg protein), calculated value in parentheses): 10.5 µL/min/mg
- half-life at 1 μM (s9, Half-life (min)): > 60 min
- half-life at 1 μM (s9, Half-life (min), calculated half-life in parentheses): 66 min

SMILES: CCCCCCCCCCCCCCCC(=O)NCCOC(=O)CCC(=O)OC[C@H]1O[C@@](CO)(O[C@H]2O[C@H](CO)[C@@H](O)[C@H](O)[C@H]2O)[C@@H](O)[C@@H]1O [Compound I-7]
- Concentration (μM) of analyte PEA, 0 min (0 min): 0.033 µM
- Concentration (μM) of analyte PEA, 10 min (10 min): 0.24 µM
- Concentration (μM) of analyte PEA, 20 min (20 min): 0.29 µM
- Concentration (μM) of analyte PEA, 30 min (30 min): 0.39 µM
- Concentration (μM) of analyte PEA, 60 min (60 min): 0.38 µM
- % Remaining of Initial (n = 1), 0 min (s9, 0 h): 100%
- % Remaining of Initial (n = 1), 10 min (s9, 10 min): 59%
- % Remaining of Initial (n = 1), 20 min (s9, 20 min): 35%
- % Remaining of Initial (n = 1), 30 min (s9, 0.5 h): 27%
- % Remaining of Initial (n = 1), 60 min (s9, 1 h): 5.7%

SMILES: CCCCCCCCCCCCCCCC(=O)NCCOC(=O)CCC(=O)OC(CO)CO [Compound I-8]
- Measured concentration of PEA (analyte) (0 min): 0.012 µM
- Measured concentration of PEA (analyte) (10 min): 0.12 µM
- Measured concentration of PEA (analyte) (20 min): 0.19 µM
- Measured concentration of PEA (analyte) (30 min): 0.22 µM
- Measured concentration of PEA (analyte) (60 min): 0.26 µM
- % Remaining of Initial (s9, 0 h): 100%
- % Remaining of Initial (s9, 10 min): 65%
- % Remaining of Initial (s9, 20 min): 45%
- % Remaining of Initial (s9, 0.5 h): 31%
- % Remaining of Initial (s9, 1 h): 12%
- microsomal CLint at 1 μM (s9, CLint): 38.9 µL/min/mg
- half-life at 1 μM (s9, Half-life): 18 min

SMILES: CCCCCCCCCCCCCCCC(=O)NCCOC(=O)CCC(=O)OCC(O)CO (stereo not drawn) [Compound I-9]
- Concentration (μM) of analyte PEA, 0 min (0 min): 0.0024 µM
- Concentration (μM) of analyte PEA, 10 min (10 min): 0.12 µM
- Concentration (μM) of analyte PEA, 20 min (20 min): 0.15 µM
- Concentration (μM) of analyte PEA, 30 min (30 min): 0.19 µM
- Concentration (μM) of analyte PEA, 60 min (60 min): 0.23 µM
- % Remaining of Initial (n = 1), 0 min (s9, 0 h): 100%
- % Remaining of Initial (n = 1), 10 min (s9, 10 min): 56%
- % Remaining of Initial (n = 1), 20 min (s9, 20 min): 33%
- % Remaining of Initial (n = 1), 30 min (s9, 0.5 h): 21%
- % Remaining of Initial (n = 1), 60 min (s9, 1 h): 6.5%
- microsomal CLint at 1 μM (s9, CLint (mL/min/mg protein)): 53.7 µL/min/mg
- half-life at 1 μM (s9, Half-life (min)): 13 min

SMILES: CCCCCCCCCCCCCCCC(=O)NCCOC(=O)CCC(=O)OCC(COC(=O)CCC)OC(=O)CCC (stereo not drawn) [Compound I-11]
- Concentration (μM) of analyte PEA, 0 min (0 min): 0 µM
- Concentration (μM) of analyte PEA, 10 min (10 min): 0.021 µM
- Concentration (μM) of analyte PEA, 20 min (20 min): 0.059 µM
- Concentration (μM) of analyte PEA, 30 min (30 min): 0.12 µM
- Concentration (μM) of analyte PEA, 60 min (60 min): 0.084 µM
- % Remaining of Initial (n = 1), 0 min (s9, 0 h): 100%
- % Remaining of Initial (n = 1), 10 min (s9, 10 min): <1.0%
- % Remaining of Initial (n = 1), 20 min (s9, 20 min): <1.0%
- % Remaining of Initial (n = 1), 30 min (s9, 0.5 h): <1.0%
- % Remaining of Initial (n = 1), 60 min (s9, 1 h): <1.0%
- microsomal CLint at 1 μM (s9, CLint (mL/min/mg protein)): > 691 µL/min/mg
- half-life at 1 μM (s9, Half-life (min)): < 1 min

SMILES: CCCCC/C=C\C/C=C\CCCCCCCC(=O)OCC(COC(=O)CCC(=O)OCCNC(=O)CCCCCCCCCCCCCCC)OC(=O)CCCCCCC/C=C\C/C=C\CCCCC (stereo not drawn) [Compound I-13]
- Concentration, analyte PEA (0 min): 12 nM
- Concentration, analyte PEA (10 min): 50 nM
- Concentration, analyte PEA (20 min): 73 nM
- Concentration, analyte PEA (30 min): 96 nM
- Concentration, analyte PEA (60 min): 89 nM
- % Remaining of Initial (n = 1) (s9, 0 h): 100%
- % Remaining of Initial (n = 1) (s9, 10 min): 97%
- % Remaining of Initial (n = 1) (s9, 20 min): 71%
- % Remaining of Initial (n = 1) (s9, 0.5 h): 81%
- % Remaining of Initial (n = 1) (s9, 1 h): 57%
- microsomal CLint at 1 μM (s9, CLint): < 11.6 µL/min/mg
- microsomal CLint at 1 μM (s9, CLint, calculated (in parentheses)): 9.51 µL/min/mg
- half-life at 1 μM (s9, Half-life): > 60 min
- half-life at 1 μM (s9, Half-life, calculated (in parentheses)): 73 min
